Results taken from ChEMBL document CHEMBL1135515, “Discovery of aminopyridine-based inhibitors of bacterial enoyl-ACP reductase (FabI)” (J Med Chem, 2002).
In brackets after ≈: the same amount, converted by molar mass.

Legend:
[1] = system: Streptococcus pneumoniae; test: Minimum concentration required for inhibition of Streptococcus pneumoniae was determined.; type: functional
[2] = Concentration required for the 50% inhibition of enoyl-ACP reductase from Haemophilus influenzae was determined.
[3] = system: Haemophilus influenzae; test: Minimum concentration required for inhibition of Haemophilus influenzae was determined.; type: functional
[4] = system: Enterococcus faecalis; test: Minimum concentration required for inhibition of Enterococcus faecalis was determined.; type: functional
[5] = target: T1, Enoyl-[acyl-carrier-protein] reductase [NADPH] FabI (Staphylococcus aureus, UniProt Q6GI75); test: Concentration required for the 50% inhibition of enoyl-ACP reductase from Staphylococcus aureus was determined.
T1 sequence (Q6GI75 whole entry): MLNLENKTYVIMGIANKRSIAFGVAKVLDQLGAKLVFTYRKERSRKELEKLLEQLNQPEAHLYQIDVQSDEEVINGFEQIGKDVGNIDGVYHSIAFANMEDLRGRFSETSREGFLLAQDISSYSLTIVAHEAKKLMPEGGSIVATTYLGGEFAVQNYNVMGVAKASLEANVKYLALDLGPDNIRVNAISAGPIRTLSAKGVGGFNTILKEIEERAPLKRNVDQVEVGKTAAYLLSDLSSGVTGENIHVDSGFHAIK

[6] = system: Staphylococcus aureus; test: Minimum concentration required for inhibition of Staphylococcus aureus was determined.; type: functional
[7] = system: Haemophilus influenzae; test: Minimum concentration required for the inhibition of Haemophilus influenzae was determined.; type: functional
[8] = Concentration required for the 50% inhibition of Enoyl-ACP reductase from Streptococcus pneumoniae was determined.
[9] = system: Staphylococcus aureus; test: Minimum concentration required for the inhibition of Staphylococcus aureus was determined.; type: functional
[10] = system: Moraxella catarrhalis; test: Minimum concentration required for inhibition of Moraxella catarrhalis was determined.; type: functional
[11] = system: Escherichia coli; test: Minimum concentration required for inhibition of Escherichia coli AcrAB was determined.; type: functional
[12] = Inhibitory concentration against Streptococcus pneumoniae Enoyl-ACP reductase
[13] = system: Streptococcus pneumoniae; test: Minimum inhibitory concentration against growth of Streptococcus pneumoniae; type: functional
[14] = system: Staphylococcus aureus; test: Antibacterial activity was measured against Staphylococcus aureus; type: functional
[15] = Compound was measured for the inhibition of enoyl-ACP reductase from Staphylococcus aureus
[16] = system: Haemophilus influenzae; test: Antibacterial activity was measured against Haemophilus influenzae; type: functional
[17] = Compound was measured for the inhibition of enoyl-ACP reductase from Haemophilus influenzae
[18] = system: Enterococcus faecalis; test: Minimum inhibitory concentration against growth of Enterococcus faecalis; type: functional

SMILES | MIC [1] [µg/mL] | IC50 [2] [µM] | MIC [3] [µg/mL] | MIC [4] [µg/mL] | IC50 [5] [µM] | MIC [6] [µg/mL] | other results
Oc1cc(Cl)ccc1Oc1ccc(Cl)cc1Cl [TRICLOSAN] |  |  |  |  |  |  | MIC [7]: ≤ 0.06 µg/mL; IC50 [8]: > 30 µM; MIC [9]: ≤ 0.06 µg/mL
CC(=O)N(C)Cc1cc(C(=O)N(C)Cc2cc3ccccc3n2C)ccc1N | > 64 | 4.7 | > 64 | > 64 | 6.7 | 16 (≈ 42.3 µM) | 
CN(Cc1cc2ccccc2n1C)C(=O)/C=C/c1ccc(N)nc1 | > 64 | 4.2 | > 64 | > 64 | 2.4 | 0.5 (≈ 1.56 µM) | MIC [10]: 4 µg/mL (≈ 12.5 µM); MIC [11]: 8 µg/mL (≈ 25 µM)
COC(=O)CC1Nc2ccc(C(=O)N(C)Cc3cc4ccccc4n3C)cc2CN(C)C1=O (stereo unspecified) | > 64 | 6.9 | > 64 | > 64 | 16.5 | > 64 | MIC [10]: 32 µg/mL (≈ 71.3 µM)
CN(Cc1cc2ccccc2n1C)C(=O)/C=C/c1cccnc1 | > 64 | 15.2 | > 64 | > 64 | 14.2 | 16 (≈ 52.4 µM) | 
CN1Cc2cc(C(=O)N(C)Cc3cc4ccccc4n3C)ccc2NCC1=O | > 64 | 2.5 | > 64 | > 64 | 21.2 | 16 (≈ 42.5 µM) | 
CN(Cc1cc2ccccc2n1C)C(=O)/C=C/c1ccc(N)cc1 |  |  |  |  |  |  | IC50 [12]: > 30 µM; MIC [13]: > 64 µg/mL; MIC [14]: 32 µg/mL (≈ 100 µM); IC50 [15]: > 11.2 µM; MIC [16]: > 64 µg/mL; IC50 [17]: 9 µM; MIC [18]: > 64 µg/mL
CN(Cc1cc2ccccc2n1C)C(=O)c1ccccc1 | > 64 | > 100 | > 64 | > 64 | > 100 | > 64 | 
CC(=O)N(C)Cc1cccc(C(=O)N(C)Cc2cc3ccccc3n2C)c1 | > 64 | 121 | > 64 | > 64 | 107 | > 64 | 
COC(=O)C[C@H]1Nc2ccc(C(=O)N(C)Cc3cc4ccccc4n3C)cc2CN(C)C1=O | > 64 | 5.1 | > 64 | > 64 | 9.9 | > 64 | 
CN(Cc1cc2ccccc2n1C)C(=O)c1ccc2c(c1)CN(C)C(=O)[C@H](C(=O)O)N2 | > 64 | > 100 | > 64 | > 64 | 676 | > 64 | 

Now from value to compound, other results behind:

MIC [1] [µg/mL] | IC50 [2] [µM] | MIC [3] [µg/mL] | MIC [4] [µg/mL] | IC50 [5] [µM] | MIC [6] [µg/mL] | SMILES | other results
> 64 | 4.3 | > 64 | > 64 | 2.2 | 2 (≈ 6.22 µM) | CN(Cc1cc2ccccc2n1C)C(=O)/C=C/c1cnc(N)nc1 | 
> 64 | 97.4 | > 64 | > 64 | 93.7 | > 64 | CN(Cc1cc2ccccc2n1C)C(=O)CCc1ccc(N)nc1 | 
> 64 | 2.6 | > 64 | > 64 | 16.3 | 32 (≈ 109 µM) | CN(Cc1cc2ccccc2n1C)C(=O)c1ccc(N)cc1 | 
> 64 | 19.2 | > 64 | > 64 | > 100 | > 64 | CN(Cc1cc2ccccc2n1C)C(=O)c1ccc(N)nc1 | 
